The target in one data set is Cdk5/p25 (Homo sapiens, UniProt Q00535). The data set is described as follows: Cdk5 kinase assay (ADP-Glo) with Cdk5/p25 complex. It is filed as biochemical. To be noted: 10 μM ATP, histone substrate, inhibitor 0-100 nM. Here is the method:
The test tube Cdk5 Kinase assay was performed utilizing Cdk5/p35 and Cdk5/p25 complexes as kinases, following the modified procedure outlined in a previous study,[52] using a Promega ADP-GloTM Kinase Assay kit. The reaction was carried out with 10 μM ATP and 2 μg of histone as the substrate for Cdk5 complexes. To study the inhibition patterns, 19 Cdk5 inhibitors (BLINK1-19) identified through molecular docking were added to the Cdk5 kinase reaction in increasing concentrations ranging from 0 to 100 nM. The IC50 (half-maximal inhibitory concentration) values of all the inhibitors were calculated based on Log(inhibitor) vs. normalized response using GraphPad software.

A further data set concerns Cdk2/CylA2. The data set is described as follows: Specificity kinase assay, Cdk2 with cyclin A2. Type of data set: biochemical. To be noted: inhibitor 0-100 nM. The source says: To assess the specificity of inhibitors BLINK11 and BLINK15 against CDK5, we investigated their effects on different Cdks, i.e., Cdk1, Cdk2, and Cdk9 that share structural homology with CDK5. […] However, these IC50 values were higher than those observed for CDK5/p35 and CDK5/p25. […] Overall, BLINK11 and BLINK15 can selectively target CDK5 at lower concentrations. […]
IC50 of all the kinases for both BLINK11 and BLINK15 inhibitors.

A short description of data set [1]: MTT cell toxicity assay in HepG2 cells. It is filed as cell-based. The settings on record: human, all doses (25 to 100 μM). Here is the method: HEK293T, HepG2, and N2A cells were used in the study representing kidney, liver and neuronal cell lines respectively. The cells were cultured in DMEM supplemented with 10% fetal bovine serum and antibiotics at 37°C under 5% CO2. The cells were tested negative for mycoplasma.
To evaluate the compound toxicity for the Cdk5 inhibitors, an MTT assay was performed in HEK293T, HepG2, and N2A cells at varying concentrations. Six hours after cell seeding, the compounds were added in different amounts, and the cells were harvested after 24 h for further analysis. N2A cells were transfected using Lipofectamine-3000 reagent, co-transfecting with plasmids encoding Cdk5/p35 and Cdk5/p25 for 12 h, followed by inhibitor treatment to assess their effects in the cell culture system. The concentrations of each plasmids used was 1 μg, total of 3 μg per well for 6 well plates.
Background: Tetrazolium assays rely on reduction of a dye to a coloured formazan, in cell work by metabolically active cells.

Data set [2] is described as follows: PAMPA blood-brain barrier permeability assay (brain polar lipid extract). To be noted: 7 h incubation, 100-500 uM, > 10*10^-6 cm/s = high permeability, read-out: Paap (PAMPA-BBB permeability). It is filed as in vitro ADME. On the procedure:
PAMPA assay was performed using a PAMPA filter plate (MAIPNTR10) coated with brain polar lipid extract (141101P) to evaluate blood-brain barrier (BBB) permeability of the compounds. The assay was performed with the help of the protocol provided by Merck Millipore on their official website and articles as cited.[62]^,[63] 5% of brain polar solution was used to coat the donor plate (15ul per well) by drying the plate in a fume hood. The acceptor plate was filled with 300ul of buffer (5% DMSO in PBS). The donor plate coated with brain polar solution was placed above the acceptor plate and different concentrations of Cdk5 inhibitor (100-500uM) dissolved in 5% DMSO were added to it (150ul per well). After 7 h of incubation, the absorbance was measured at broad spectrum 250–500 nm. […] For permeability, the Papp of the drugs was calculated.Paap = C ∗ -ln (1-[drugacceptor]/[Drugequilibrium]); C=VD∗VA/(VD + VA) ∗ area ∗ timePaap < 10∗10^−6 cm/s - Low permeability; Paap > 10∗10^−6 cm/s - high permeability
In general terms: The PAMPA barrier holds no transporters, so it reflects passive diffusion.

The test system of data set [3] is HFD-fed mice. The data set is described as follows: Elevated plus maze (EPM) in HFD mice. It is filed as in vivo. The settings on record: i.p., 20 days, compared to HFD group. The source says: In order to examine anxiety-like behavior, phenotype transgenic and knockout mice, and screen for anxiolytic and anxiogenic medicines, this maze takes advantage of the natural fear of open, high areas in rodents.[56]^,[57]
The EPM experiment is a widely utilized technique in behavioral neuroscience to evaluate anxiety-related behaviors in mice.[57] The apparatus comprises two open arms and two closed arms arranged in a plus-shaped configuration and elevated above the ground. Mice are introduced to the center of the maze, and their movements are observed over a set period of 5 min.[56]^,[58] The amount of time spent in the open arms versus the closed arms is recorded, with more time in the open arms indicating lower anxiety levels. The distance traveled in each arm were also analyzed using ANYmaze software. This method leverages the natural tendency of rodents to avoid open spaces and seek enclosed areas.

Data set [4] concerns HFD-fed mice. The data set is described as follows: Morris water maze (MWM) in HFD mice. It is filed as in vivo. To be noted: i.p., both doses 20 and 40 mg/kg/day, 20 days. Here is the method: The MWM test was conducted to evaluate memory and spatial learning in mice, using visual cues placed on the walls of a water tank. For five consecutive days, the mice were trained in the water maze, with each session involving the release of the mice from various starting points and the task of locating a hidden platform within the maze. Each day, the mice underwent four trials, following the established protocol by Charles V. Vorhees (2006). The time taken (latency) for each mouse to find the platform was measured and recorded throughout the training period.
On the sixth day, a probe test was conducted to assess reference memory. The hidden platform was removed, and the mice’s behavior was observed as they navigated the maze. The time spent in the target quadrant and the time taken to reach the former platform location were recorded. This probing phase aimed to evaluate the mice’s retention of the spatial information and memory acquired during the training sessions. The MWM test evaluated memory and spatial learning in mice using visual cues in a water tank. Over five days, mice were trained to find a platform within the tank, undergoing four trials daily as per Charles V. Vorhees' protocol. On day six, a probing experiment assessed reference memory. […] Time spent and latency to reach the target quadrant were recorded. […]

The next data set concerns T1, CDK5.
T1 construct: Cdk5 kinase activity using pulled down Cdk5 from the hippocampus lysate of the mouse groups; from tissue; host or cells: hippocampus / brain lysate of male C57BL/6J mice on high-fat diet
Put plainly: Cdk5 kinase activity of Cdk5 pulled down from hippocampus lysate of treated HFD mice. Type of data set: in vivo. To be noted: i.p., 20 days, in the presence of p25. Here is the method:
Cdk5 was immunoprecipitated from N2A cells and brain lysate using a Cdk5 antibody. Kinase assays were performed using a Promega ADP-Glo Kinase Assay kit with Cdk5/p35 and Cdk5/p25 complexes. Histone was used as a substrate to test kinase activity Cdk5 was immunoprecipitated from N2a cells overexpressing Cdk5/p35 and Cdk5/p25, following treatment with BLINK11 and BLINK15 inhibitors at concentrations of 50nM and 100nM, using a Cdk5 antibody. A kinase assay was subsequently conducted as described in Bankston et al.[53] Additionally, Cdk5 was precipitated from mouse brain lysates treated with BLINK11 and BLINK15 inhibitors. The immunoprecipitation was performed with 100 μL of A/G beads, 2 μg of Cdk5 antibody, and 150 μg of cell and brain lysates, with elution carried out using a urea elution buffer. The kinase assay was conducted using the ADP-Glo Kinase Assay Kit (Promega) with immunoprecipitated Cdk5, ATP, and 1–2 μg of histone as the substrate.

Cdk5/p25, sequence (Q00535 whole entry, species assumed): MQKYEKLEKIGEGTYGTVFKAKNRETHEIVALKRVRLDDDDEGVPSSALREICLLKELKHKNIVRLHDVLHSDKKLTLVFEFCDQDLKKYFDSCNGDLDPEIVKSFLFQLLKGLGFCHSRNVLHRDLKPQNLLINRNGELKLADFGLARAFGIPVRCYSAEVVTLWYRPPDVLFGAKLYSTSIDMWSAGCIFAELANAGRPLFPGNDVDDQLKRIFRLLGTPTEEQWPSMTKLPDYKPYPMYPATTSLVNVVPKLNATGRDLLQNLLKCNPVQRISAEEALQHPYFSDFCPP
Cdk5/p25, sequence (Q15078 99-307 partner limits assumed, species assumed): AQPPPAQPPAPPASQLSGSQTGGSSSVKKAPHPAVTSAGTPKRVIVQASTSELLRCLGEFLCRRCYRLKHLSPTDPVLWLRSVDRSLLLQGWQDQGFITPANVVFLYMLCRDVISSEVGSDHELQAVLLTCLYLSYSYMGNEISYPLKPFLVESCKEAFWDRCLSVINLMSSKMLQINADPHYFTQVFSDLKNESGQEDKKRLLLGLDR

A word on the IC50: it is the point on the concentration scale where inhibition reaches its midpoint. Read a high IC50 as lower potency. A word on the viability: it is the share of living cells, or the viability signal relative to a control. Low values mean a greater loss of cells, high ones better survival. For `O=C(COc1ccccc1C(=O)Nc1cccc(Cl)c1Cl)Nc1ccc(N2CCOCC2)c(Cl)c1` [BLINK11, 2-(2-((3-chloro-4-morpholinophenyl)amino)-2-oxoethoxy)-N-(2,3-dichlorophenyl)benzamide], the IC50 against Cdk5/p25 was found to be 14.7 nM. Moreover, the “Inhibition of Cdk2 (with cyclin A2)” value in the data set on Cdk2/CylA2 is recorded as “minimal inhibition”. This compound also yielded a viability at 24 h in data set [1] above 50%. Moreover, in data set [2], the Papp at 7 h is above 10 ×10⁻⁶ cm/s. For the same compound, the “Anxiety behavior in elevated plus maze (time in open and closed arms)” value in the data set on HFD-fed mice [3] is recorded as “rescuing effect on anxiety behavior”. In addition, the “Water maze time to reach the platform (spatial learning and memory)” value in the data set with HFD-fed mice [4] is reported as “rescue behavior”. Also, the “CDK5 activity in hippocampal lysate” value in the data set with CDK5 was “significant reduction in CDK5 activity”.

Compound `COc1ccc(C(=O)C[C@@]2(O)C(=O)N(Cc3ccccc3)c3ccc(Br)cc32)cc1[N+](=O)[O-]` [BLINK15] registered a half-maximal inhibitory concentration (IC50) at Cdk5/p25 of 12.1 nM. Besides, the “Inhibition of Cdk2 (with cyclin A2)” value with Cdk2/CylA2 is “minimal inhibition”. Besides, the viability at 24 h in data set [1] was above 50%. Further, in data set [2], the Papp at 7 h is above 10 ×10⁻⁶ cm/s. Moreover, the “Anxiety behavior in elevated plus maze (time in open and closed arms)” value in the data set on HFD-fed mice [3] is “no significant difference compared to the HFD group”. Besides, the “Water maze time to reach the platform (spatial learning and memory)” value in the data set on HFD-fed mice [4] is “rescue behavior”. Further, the “CDK5 activity in hippocampal lysate” value in the data set with CDK5 was “significant reduction in CDK5 activity”.
